In patent EP4745145A1, “SALT OF THIAZOLOPYRAZINE COMPOUND OR CRYSTAL THEREOF AND USE THEREOF” (Simcere Zaiming Pharmaceutical Co., Ltd., priority 2023, dated 2025):
Where a name gives a salt, the structure may show the parent alone.

Columns and labels:
Format in all cases: physicochemical
[1] = Accelerated experiment (stability at 40 °C, 75% RH)
Method: (§1) Each test sample was placed under high temperature (60 °C), high humidity (92.5%), light (7000 lux), or accelerated (40 °C, 75% RH) conditions using a 2 mL screw-thread sample vial in an open state; each sample was placed with packaging (2 layers of medicinal low-density polyethylene bags + 1 layer of polyester/aluminum/polyethylene medicinal composite film bag) under light (7000 lux) or accelerated (40 °C, 75% RH) conditions to investigate the stability of the sample.

[2] = Influencing factor experiment (stability under high temperature, high humidity, light)
Method: as §1

[3] = Solubility experiment in water
Method: The thermodynamic solubility of the compounds of the present disclosure was determined using the following test method.
The thermodynamic solubility of the compounds of the present disclosure in water was investigated. Water (1000 µL) was measured and placed into a 1 mL transparent glass tube with a stopper. An appropriate amount of each sample was weighed and added to saturate the solution, and the solution was shaken to disperse the sample. […] Then, an appropriate amount of the sample was taken, filtered through a microporous filter membrane, and subjected to content determination using high-performance liquid chromatography with an external standard method. The thermodynamic solubility of each compound in water (µg/mL) was calculated.

[4] = Hygroscopicity experiment (dynamic vapor sorption); conditions: 80.0% RH, 25 °C
Method: Test conditions for the instruments used in the experiments of the present disclosure: • 1. X-ray powder diffraction • Instrument model: Bruker D8 Focus • X-ray light source: Cu Kα • Kα1 (Å): 1.54060; • Wavelength λ (Å): 1.54060 • Slit (°): 2.5 • Scan mode: θ/2θ, scan range: 3-40° (2θ angle) • Retention time (s): 0.12 • Scanning step length (° 2θ): 0.01 • Voltage: 40 kV • Current: 40 mA • 2. Differential scanning calorimeter • Instrument model: Discovery DSC 2500 • Purging gas: nitrogen • Sample tray: aluminum tray, non-sealing gland • Method: linear heating • Ramping rate: 10 °C/min • Temperature range: 30 °C-400 °C • 3. Thermogravimetric analyzer • Instrument model: Discovery TA 55 • Purging gas: nitrogen • Sample tray: platinum, open • Method: linear heating • Ramping rate: Ramp from a starting temperature of 30 °C to 400 °C at a rate of 10 °C/min • Temperature range: 30 °C-400 °C • 4. Dynamic vapor sorption instrument • Instrument model: DVS Intrinsic. • DVS parameters: • Temperature: 25 °C; • Equilibrium: dm/dt = 0.002%/min • RH (%) test gradient: 10% • Range of RH (%) test gradient: 0%-90%-0%. • 5. Ion chromatography • Instrument model: Thermo Fisher Integrion, No. IC001 • Test method: Conductivity […] • Separation column: Dionex IonpacTM CS12 Guard 4 × 250 mm • Eluent: 20 mM methanesulfonic acid solution • Flow rate: 1.0 mL/min
• (1) Experimental instrument: dynamic vapor sorption DVS Intrinsic. • (2) Experimental conditions: Each test sample was taken and placed in a DVS sample pan for testing. • (3) DVS parameters: • Temperature: 25 °C; • Equilibrium: dm/dt = 0.002%/min • RH (%) test gradient: 10% • Range of RH (%) test gradient: 0%-90%-0%.

[5] = Accelerated (40 °C), packaged, 14d
[6] = Accelerated (40 °C), packaged, 32d
[7] = Light (7000 lux, packaged), 10d
[8] = Light (7000 lux, packaged), 32d

## COc1ccc(Cl)cc1-c1cc(C)ncc1C(=O)Nc1nc2ncc(-c3ccc(C#N)cc3)nc2s1 [Amorphous form of sodium salt of compound of formula I]
[1]; 0 h, 0d
  Purity: 99.31%
  Total impurities: 0.52%
[1]; Accelerated (40 °C), open, 7d
  Purity: 99.33%
  Total impurities: 0.67%
[2]; 0 h, 0d
  Purity: 99.31%
  Total impurities: 0.52%
[2]; High humidity (92.5% RH), 11d
  Purity: 98.89%
  Total impurities: 1.11%
[2]; High temperature (60 °C), 11d
  Purity: 99.23%
  Total impurities: 0.77%
[2]; Light (7000 lux, open), 7d
  Purity: 97.57%
  Total impurities: 2.43%
[3]; 1h, 60 min
  Dynamic solubility in water: 1.57 µg/mL
[3]; 2h, 120 min
  Dynamic solubility in water: 4.37 µg/mL
[3]; 4h, 240 min
  Dynamic solubility in water: 44.68 µg/mL
[3]; 24h, 1440 min
  Dynamic solubility in water: 0.72 µg/mL

## COc1ccc(Cl)cc1-c1cc(C)ncc1C(=O)Nc1nc2ncc(-c3ccc(C#N)cc3)nc2s1 [Crystal form E]
[1]; 0 h, 0d
  Purity: 99.39%
  Total impurities: 0.52%
[1]; Accelerated (40 °C), open, 7d
  Purity: 99.49%
  Total impurities: 0.51%
[1]; accelerated (40 °C, 75% RH)
  physical stability: relatively poor physical stability
[2]; 0 h, 0d
  Purity: 99.39%
  Total impurities: 0.52%
[2]; High humidity (92.5% RH), 11d
  Purity: 99.48%
  Total impurities: 0.52%
[2]; High temperature (60 °C), 11d
  Purity: 99.25%
  Total impurities: 0.75%
[2]; Light (7000 lux, open), 7d
  Purity: 99.24%
  Total impurities: 0.76%
[2]; high humidity (92.5% RH)
  physical stability: relatively poor physical stability
[3]; 1h, 60 min
  Dynamic solubility in water: <0.5 µg/mL
[3]; 2h, 120 min
  Dynamic solubility in water: 1.03 µg/mL
[3]; 4h, 240 min
  Dynamic solubility in water: 2.26 µg/mL
[3]; 24h, 1440 min
  Dynamic solubility in water: 2.72 µg/mL
[4]
  weight gain due to moisture absorption: 2.5%

## COc1ccc(Cl)cc1-c1cc(C)ncc1C(=O)Nc1nc2ncc(-c3ccc(C#N)cc3)nc2s1 [Crystal form C]
[1]; 0 h, 0d
  Purity: 99.2%
  Total impurities: 0.8%
[1]; Accelerated (40 °C), open, 7d
  Purity: 99.20%
  Total impurities: 0.80%
[1]; Accelerated (40 °C), open, 14d
  Purity: 99.21%
  Total impurities: 0.79%
[2]; 0 h, 0d
  Purity: 99.2%
  Total impurities: 0.80%
[2]; High humidity (92.5% RH), 7d
  Purity: 99.21%
  Total impurities: 0.79%
[2]; High humidity (92.5% RH), 14d
  Purity: 99.20%
  Total impurities: 0.80%
[2]; High temperature (60 °C), 7d
  Purity: 99.26%
  Total impurities: 0.74%
[2]; High temperature (60 °C), 14d
  Purity: 99.22%
  Total impurities: 0.78%
[2]; Light (7000 lux, open), 7d
  Purity: 98.29%
  Total impurities: 1.71%
[2]; Light (7000 lux, open), 14d
  Purity: 97.16%
  Total impurities: 2.84%
[3]; 1h, 60 min
  Dynamic solubility in water: 857.52 µg/mL
[3]; 4h, 240 min
  Dynamic solubility in water: 1337.74 µg/mL
[3]; 24h, 1440 min
  Dynamic solubility in water: 108.15 µg/mL
[4]
  weight gain due to moisture absorption: -4.3%

## COc1ccc(Cl)cc1-c1cc(C)ncc1C(=O)Nc1nc2ncc(-c3ccc(C#N)cc3)nc2s1 [Crystal form B]
[1]; 0 h, 0d
  Purity: 98.89%
  Total impurities: 1.11%
[1]; Accelerated (40 °C), open, 7d
  Purity: 98.84%
  Total impurities: 1.16%
[1]; Accelerated (40 °C), open, 14d
  Purity: 98.87%
  Total impurities: 1.13%
[1]; Accelerated (40 °C), open, 32d
  Purity: 98.88%
  Total impurities: 1.12%
[1]; [5]
  Purity: 98.87%
  Total impurities: 1.13%
[1]; [6]
  Purity: 98.82%
  Total impurities: 1.18%
[2]; 0 h, 0d
  Purity: 98.89%
  Total impurities: 1.11%
[2]; High humidity (92.5% RH), 7d
  Purity: 98.60%
  Total impurities: 1.40%
[2]; High humidity (92.5% RH), 14d
  Purity: 98.89%
  Total impurities: 1.11%
[2]; High humidity (92.5% RH), 32d
  Purity: 98.83%
  Total impurities: 1.17%
[2]; High temperature (60 °C), 7d
  Purity: 98.98%
  Total impurities: 1.02%
[2]; High temperature (60 °C), 14d
  Purity: 98.93%
  Total impurities: 1.07%
[2]; High temperature (60 °C), 32d
  Purity: 98.84%
  Total impurities: 1.16%
[2]; Light (7000 lux, open), 7d
  Purity: 98.84%
  Total impurities: 1.16%
[2]; Light (7000 lux, open), 14d
  Purity: 98.85%
  Total impurities: 1.15%
[2]; Light (7000 lux, open), 32d
  Purity: 98.73%
  Total impurities: 1.27%
[2]; [7]
  Purity: 98.90%
  Total impurities: 1.10%
[2]; [8]
  Purity: 98.90%
  Total impurities: 1.10%
[3]; 1h
  Dynamic solubility in water: <0.5 µg/mL
[3]; 2h
  Dynamic solubility in water: <0.5 µg/mL
[3]; 4h
  Dynamic solubility in water: <0.5 µg/mL
[3]; 24h
  Dynamic solubility in water: 0.77 µg/mL
[4]
  weight gain due to moisture absorption: 1.5%

## COc1ccc(Cl)cc1-c1cc(C)ncc1C(=O)Nc1nc2ncc(-c3ccc(C#N)cc3)nc2s1 [Crystal form A]
[1]; 0 h, 0d
  Purity: 99.21%
  Total impurities: 0.79%
[1]; Accelerated (40 °C), open, 7d
  Purity: 99.21%
  Total impurities: 0.79%
[1]; Accelerated (40 °C), open, 14d
  Purity: 99.17%
  Total impurities: 0.83%
[1]; Accelerated (40 °C), open, 32d
  Purity: 99.18%
  Total impurities: 0.82%
[1]; [5]
  Purity: 99.19%
  Total impurities: 0.81%
[1]; [6]
  Purity: 99.19%
  Total impurities: 0.81%
[2]; 0 h, 0d
  Purity: 99.21%
  Total impurities: 0.79%
[2]; High humidity (92.5% RH), 7d
  Purity: 99.26%
  Total impurities: 0.74%
[2]; High humidity (92.5% RH), 14d
  Purity: 99.20%
  Total impurities: 0.80%
[2]; High humidity (92.5% RH), 32d
  Purity: 99.21%
  Total impurities: 0.79%
[2]; High temperature (60 °C), 7d
  Purity: 99.23%
  Total impurities: 0.77%
[2]; High temperature (60 °C), 14d
  Purity: 99.17%
  Total impurities: 0.83%
[2]; High temperature (60 °C), 32d
  Purity: 99.15%
  Total impurities: 0.85%
[2]; Light (7000 lux, open), 7d
  Purity: 99.11%
  Total impurities: 0.89%
[2]; Light (7000 lux, open), 14d
  Purity: 98.75%
  Total impurities: 1.25%
[2]; Light (7000 lux, open), 32d
  Purity: 98.24%
  Total impurities: 1.76%
[2]; [7]
  Purity: 99.19%
  Total impurities: 0.81%
[2]; [8]
  Purity: 99.22%
  Total impurities: 0.78%
[3]; 1h, 60 min
  Dynamic solubility in water: 2081.71 µg/mL
[3]; 2h, 120 min
  Dynamic solubility in water: 1590.35 µg/mL
[3]; 4h, 240 min
  Dynamic solubility in water: 1441.04 µg/mL
[3]; 24h, 1440 min
  Dynamic solubility in water: 27.01 µg/mL
[4]
  weight gain due to moisture absorption: 1.6%
